Assay results from article PMC11591545 (Antibiotics, 2024).
≈ marks a conversion by molar mass, not a printed value. Like-named read-outs stand apart in the source and are kept apart here.

How the values were obtained:
[1] = in vivo
[2] = human
Experimental: (§1) Sampling was routinely performed on three occasions for each patient at day 1 (30 min after the end of the infusion), day 7 (before redosing), and day 42 (before redosing). Blood samples were centrifuged (5 min, 4000 rpm) immediately after collection and aliquoted into 2 mL propylene tubes (Eppendorf, Hamburg, Germany). Aliquots were stored at −20 °C within 60 min after sample collection for a maximum of 4 weeks until assay. […] To obtain the unbound fraction, samples were prepared by solid phase extraction using a Nanosep® filter (Pall, New York, NY, USA) [18]. The limit of quantification (QL) was 12.5 mg/L for the total concentration and 1 mg/L for the unbound fraction [18].

[3] = label; cited from earlier work
S. aureus = assay: Individual fAUC24 h/MIC at the end of the dosing interval in VAD patients; details: last 24 h before redosing
Experimental: To use a conservative approach in suppressive therapy reflecting efficacy in the crucial phase before redosing, the AUC was calculated at the end of the dosing interval (last 24 h before redosing) [21].

[4] = fixed in the final model, based on a previous reported value; cited from earlier work
[5] = serum, mean ± SD
Experimental: as §1

clinical [6] = details: human, in vivo, iv
[7] = test system: S. aureus infection isolates; assay: MIC strips test and broth microdilution assay according to EUCAST; assay type: cell-based, Staphylococcus aureus
Experimental: The MIC was tested with the MIC strips test (Liofilchem, Roseto degli Abruzzi, Italy) and broth microdilution assay according to EUCAST standards and the manufacturer’s instructions. All patients with VAD-associated infections were included in a register study after providing informed consent. A positive vote of the ethics committee of Heidelberg University Hospital was obtained before the start of the study (S-674/2022). […] Clinical data and laboratory and microbiological results were extracted.

clinical [8] = details: human, serum, iv, 1500 mg; SD
Experimental: as §1

[9] = cited from earlier work

## CN[C@H]1C(=O)N[C@@H]2Cc3ccc(cc3)Oc3cc4cc(c3O[C@@H]3O[C@H](C(=O)O)[C@@H](O)[C@H](O)[C@H]3NC(=O)CCCCCCCCC(C)C)Oc3ccc(cc3Cl)[C@@H](O)[C@@H]3NC(=O)[C@H](NC(=O)[C@@H]4NC(=O)[C@@H](NC2=O)c2cc(cc(O)c2Cl)Oc2cc1ccc2O)c1ccc(O)c(c1)-c1c(O[C@H]2O[C@H](CO)[C@@H](O)[C@H](O)[C@@H]2O)cc(O)cc1[C@@H](C(=O)NCCCN(C)C)NC3=O [dalbavancin]
[1]
  CL, bootstrap mean (CI 95%): 0.050 (0.044–0.055) L/h
  V1, bootstrap mean (CI 95%): 6.42 (5.65–7.31) L
  V1, central volume of distribution, estimate: 6.5 L
  V2, bootstrap mean (CI 95%): 14.99 (12.46–18.67) L
  V2, peripheral volume of distribution, estimate: 15.4 L
[2]
  observed protein binding: 96-98%
[3]
  labeled protein binding: 93%
S. aureus; patient 1
  fAUC24 h/MIC: 141
S. aureus; patient 2
  fAUC24 h/MIC: 318
S. aureus; patient 3, MIC not available, calculated with S. aureus breakpoint 0.25 mg/L
  fAUC24 h/MIC: 26
S. aureus; patient 4, MIC not available, calculated with S. aureus breakpoint 0.25 mg/L
  fAUC24 h/MIC: 127
S. aureus; patient 5
  fAUC24 h/MIC: 110
S. aureus; patient 6, MIC not available, calculated with S. aureus breakpoint 0.25 mg/L
  fAUC24 h/MIC: 49
S. aureus; patient 7
  fAUC24 h/MIC: 165
S. aureus; patient 8
  fAUC24 h/MIC: 253
S. aureus; patient 9
  fAUC24 h/MIC: 582
S. aureus; patient 10
  fAUC24 h/MIC: 60
S. aureus; patient 11
  fAUC24 h/MIC: 311
S. aureus; patient 12
  fAUC24 h/MIC: 104
S. aureus; patient 13
  fAUC24 h/MIC: 84
[4]
  Q, inter-compartmental clearance: 0.476 L/h
[5]; end of infusion after the first dose
  fcday1 (unbound concentration day 1): 6.3 ± 2.7
[5]; trough by the end of the first week
  fcday8 (unbound concentration day 8): 1.3 ± 0.6
Clinical [6]
  Vd: 21.9 L
  clearance: 0.833 mL/min
[7]; isolate of patient 1
  MIC: 0.064 µg/mL (≈ 0.0352 µM)
[7]; isolate of patient 2
  MIC: 0.064 µg/mL (≈ 0.0352 µM)
[7]; isolate of patient 5
  MIC: 0.094 µg/mL (≈ 0.0517 µM)
[7]; isolate of patient 7
  MIC: 0.047 µg/mL (≈ 0.0259 µM)
[7]; isolate of patient 8
  MIC: 0.047 µg/mL (≈ 0.0259 µM)
[7]; isolate of patient 9
  MIC: 0.064 µg/mL (≈ 0.0352 µM)
[7]; isolate of patient 10
  MIC: 0.125 µg/mL (≈ 0.0688 µM)
[7]; isolate of patient 11
  MIC: 0.064 µg/mL (≈ 0.0352 µM)
[7]; isolate of patient 12
  MIC: 0.047 µg/mL (≈ 0.0259 µM)
[7]; isolate of patient 13
  MIC: 0.064 µg/mL (≈ 0.0352 µM)
Clinical [8]
  level at 0.5 h: 218000 ± 65900 ng/mL
  level at 168 h: 41100 ± 11100 ng/mL
  level at 1008 h: 13200 ± 9900 ng/mL
[9]; earlier population PK studies
  population VD: 15.0 to 16.7 L
[9]; reported
  half-life: 15.6 days
[9]; three-compartment model, ref Carrothers et al. 14
  clearance (CL): 0.053 L/h
[9]; two-compartment model, ref Buckwalter et al. 11
  clearance (CL): 0.057 L/h
[9]; two-compartment model, ref Cojutti et al. 13
  clearance (CL): 0.041 L/h
